Test results as given in US20240317744A1, “Bicyclic Ureas As Kinase Inhibitors” (Incyte Corporation, priority 2023, published 2024).

Tests used:
[1] = target: T1, pseudo-kinase domain (JH2, amino-acids 536-812) of human Wild Type JAK2 (Homo sapiens, UniProt O60674, F794H/W659A/W777A); assay: JAK2 LanthaScreen JH2-WT Binding Assay; conditions: JAK2 JH2-WT 0.145 nM, 50 nM tracer, 1 hour at 25° C.; read-out: JH2 BIND WT
T1 construct: pseudo-kinase domain (JH2, amino-acids 536-812 with 3 surface mutations W659A, W777A, F794H); His (C); purchased BPS Bioscience 79463; host or cells: baculovirus expression system
Method in brief: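 TR-FRET tracer displacement: 0.145 nM biotinylated JH2 protein, 50 nM fluorescent tracer, 0.25 nM streptavidin-Tb, compound dilution series; 50 mM Tris pH 7.5, 10 mM MgCl2, 5 mM DTT; 1 h, 25° C. Non-specific binding with 2 mM ATP. IC50 by 4-parameter fit.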

[2] = target: T2, pseudo-kinase domain (JH2, amino-acids 536-812) of human V617F mutant JAK2 (Homo sapiens, UniProt O60674, F794H/V617F/W659A/W777A); assay: JAK2 LanthaScreen JH2-V617F Binding Assay; conditions: JAK2 JH2-V617F 0.26 nM, 50 nM tracer, 1 hour at 25° C.; read-out: JH2 BIND V617F
T2 construct: pseudo-kinase domain (JH2, amino-acids 536-812 with 3 surface mutations W659A, W777A, F794H); His (C); purchased BPS Bioscience 79498; host or cells: baculovirus expression system
Method in brief: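 Biotinylated His-Avi-tagged construct, baculovirus-expressed, at 0.26 nM; compounds competed against 50 nM fluorescent JH2 tracer with 0.25 nM streptavidin-Tb in Tris pH 7.5 buffer. Non-specific binding defined with 2 mM ATP. Read after 1 h at 25° C by TR-FRET; IC50 from four-parameter fit.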

[3] = target: T3, catalytic domain (JH1, amino acids 826-1132) of human JAK2 (Homo sapiens, UniProt O60674); assay: JAK2 LanthaScreen JH1 Binding Assay; conditions: JAK2 JH1 1.5 nM, 50 nM tracer, 2 hours at 25° C.; read-out: JH1 BIND
T3 construct: catalytic domain (JH1, amino acids 826-1132) of human JAK2; FLAG (N); biotin (biotinylated); purchased Carna Biosciences 08-445-20N; host or cells: baculovirus expression system
Method in brief: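 FLAG-tagged, biotinylated JAK2 JH1 (aa 826-1132, baculovirus-expressed; 1.5 nM) incubated 2 h at 25° C with compounds, 50 nM fluorescent tracer and 0.5 nM Streptavidin-Tb in Tris pH 7.5 buffer with MgCl2, Brij-35, BSA, EGTA, glycerol, DTT. Nonspecific binding defined with 2 mM ATP; TR-FRET IC50 from four-parameter fit.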

[4] = target: catalytic domain (JH1, amino acids 808-1132) of human JAK2 (Homo sapiens, UniProt O60674); assay: JAK2 HTRF Enzyme Activity Assay; type: biochemical; conditions: ATP 30 µM, 60 minutes at 25° C.; read-out: V617F ENZ 30 UM
Sequence of catalytic domain (JH1, amino acids 808-1132) of human JAK2 (O60674 808-1132 limits assumed): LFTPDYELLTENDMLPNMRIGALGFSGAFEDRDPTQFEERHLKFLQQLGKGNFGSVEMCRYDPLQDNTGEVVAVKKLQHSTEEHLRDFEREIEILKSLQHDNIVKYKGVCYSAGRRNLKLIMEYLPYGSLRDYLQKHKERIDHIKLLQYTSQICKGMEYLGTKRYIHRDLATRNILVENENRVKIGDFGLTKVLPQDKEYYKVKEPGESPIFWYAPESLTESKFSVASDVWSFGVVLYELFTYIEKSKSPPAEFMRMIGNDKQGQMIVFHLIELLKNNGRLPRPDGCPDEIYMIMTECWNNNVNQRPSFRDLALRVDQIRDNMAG

T3 sequence (O60674 826-1132): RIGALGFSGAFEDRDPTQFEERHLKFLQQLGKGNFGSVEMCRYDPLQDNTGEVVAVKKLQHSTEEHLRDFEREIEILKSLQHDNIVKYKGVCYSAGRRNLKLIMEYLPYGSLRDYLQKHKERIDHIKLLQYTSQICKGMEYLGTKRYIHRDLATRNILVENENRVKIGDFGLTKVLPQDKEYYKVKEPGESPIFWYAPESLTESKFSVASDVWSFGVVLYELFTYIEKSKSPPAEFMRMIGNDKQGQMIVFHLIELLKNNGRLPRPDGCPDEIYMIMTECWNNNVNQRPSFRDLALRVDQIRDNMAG
T1 sequence (O60674 536-812 W659A/W777A/F794H): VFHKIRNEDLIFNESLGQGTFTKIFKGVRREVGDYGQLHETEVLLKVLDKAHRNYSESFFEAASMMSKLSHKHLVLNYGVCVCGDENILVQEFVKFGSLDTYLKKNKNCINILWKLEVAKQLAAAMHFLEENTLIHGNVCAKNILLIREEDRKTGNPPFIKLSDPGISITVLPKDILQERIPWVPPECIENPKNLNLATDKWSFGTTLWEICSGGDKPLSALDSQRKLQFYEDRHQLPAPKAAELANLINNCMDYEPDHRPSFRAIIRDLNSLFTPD
T2 sequence (O60674 536-812 V617F/W659A/W777A/F794H): as the sequence (O60674 536-812 W659A/W777A/F794H) above, with V82F counted along it

| SMILES | IC50 [1] [nM] | IC50 [2] [nM] | IC50 [3] [nM] | IC50 [4] [nM] |
| --- | --- | --- | --- | --- |
| Cn1c(=O)n(C2CCCC2)c2cc(Nc3cc(NC(=O)OC4CCC4)cc(-c4cnn(C5CC5)c4)c3)ncc21 [Example 61, Cyclobutyl (3-((1-cyclopentyl-3-methyl-2-oxo-2,3-dihydro-1H-imidazo[4,5-c]pyridin-6-yl)amino)-5-(1-cyclopropyl-1H-pyrazol-4-yl)phenyl)carbamate] | 10 to 100 | 100 to 500 | > 1000 | > 1000 |
| COC(=O)Nc1cc(Nc2cc3c(cn2)n(C)c(=O)n3[C@H]2C[C@H](NC(=O)C3CC3)C2)cc(-c2cnn(C)c2)c1 [Example 24, Methyl (3-((1-((1r,3r)-3-(cyclopropanecarboxamido)cyclobutyl)-3-methyl-2-oxo-2,3-dihydro-1H-imidazo[4,5-c]pyridin-6-yl)amino)-5-(1-methyl-1H-pyrazol-4-yl)phenyl)carbamate] | 10 to 100 | 10 to 100 | > 1000 | > 1000 |
| COC(=O)N[C@@H]1CC[C@@H](n2c(=O)n(C)c3cnc(Nc4ccnc(NC5CCC(F)(F)C5)n4)cc32)C1 (stereo partly drawn) [Example 83, Methyl ((1R,3R)-3-(6-((2-((3,3-difluorocyclopentyl)amino)pyrimidin-4-yl)amino)-3-methyl-2-oxo-2,3-dihydro-1H-imidazo[4,5-c]pyridin-1-yl)cyclopentyl)carbamate] | ≤ 10 | 10 to 100 | > 1000 | > 1000 |
| COC(=O)N[C@@H]1CC[C@@H](n2c(=O)n(C)c3cnc(Nc4ccc5ncc(-c6cncn6C)n5n4)cc32)C1 [Example 38, Methyl ((1R,3R)-3-(3-methyl-6-((3-(1-methyl-1H-imidazol-5-yl)imidazo[1,2-b]pyridazin-6-yl)amino)-2-oxo-2,3-dihydro-1H-imidazo[4,5-c]pyridin-1-yl)cyclopentyl)carbamate] | ≤ 10 | 10 to 100 | > 1000 | > 1000 |
| COC(=O)N[C@@H]1CC[C@@H](n2c(=O)n(C)c3cnc(Nc4cc(NC(=O)[C@H]5CC5(F)F)cc(C5CCOCC5)c4)cc32)C1 [Example 17, Methyl ((1R,3R)-3-(6-((3-((R)-2,2-difluorocyclopropane-1-carboxamido)-5-(tetrahydro-2H-pyran-4-yl)phenyl)amino)-3-methyl-2-oxo-2,3-dihydro-1H-imidazo[4,5-c]pyridin-1-yl)cyclopentyl)carbamate] | ≤ 10 | ≤ 10 | > 1000 | > 1000 |
| [2H]C([2H])([2H])n1c(=O)n([C@H]2C[C@H](C(C)(C)O)C2)c2cc(Nc3cc(-c4cnccc4C(F)(F)F)c4nc(C)c(-c5cnn(C(F)F)c5)n4n3)ncc21 [Example 106, 6-((3-(1-(Difluoromethyl)-1H-pyrazol-4-yl)-2-methyl-8-(4-(trifluoromethyl)pyridin-3-yl)imidazo[1,2-b]pyridazin-6-yl)amino)-1-((1r,3r)-3-(2-hydroxypropan-2-yl)cyclobutyl)-3-(methyl-d3)-1,3-dihydro-2H-imidazo[4,5-c]pyridin-2-one] | ≤ 10 | ≤ 10 | > 1000 | > 1000 |
| COC(=O)Nc1cc(Nc2cc3c(cn2)n(C)c(=O)n3[C@@H]2CC[C@@H](NC(=O)OC)C2)cc(C2CCCOC2)c1 (stereo partly drawn) [Example 21, Methyl (3-((1-((1R,3R)-3-((methoxycarbonyl)amino)cyclopentyl)-3-methyl-2-oxo-2,3-dihydro-1H-imidazo[4,5-c]pyridin-6-yl)amino)-5-(tetrahydro-2H-pyran-3-yl)phenyl)carbamate] | ≤ 10 | ≤ 10 | > 1000 | > 1000 |
| COC(=O)N[C@@H]1CC[C@@H](n2c(=O)n(C)c3cnc(Nc4cccc(OC5CCC(C#N)CC5)n4)cc32)C1 (stereo partly drawn) [Example 22, Methyl ((1R,3R)-3-(6-((6-((4-cyanocyclohexyl)oxy)pyridin-2-yl)amino)-3-methyl-2-oxo-2,3-dihydro-1H-imidazo[4,5-c]pyridin-1-yl)cyclopentyl)carbamate] | 10 to 100 | 10 to 100 | > 1000 | > 1000 |
| [2H]C([2H])([2H])n1c(=O)n([C@@H]2CC[C@@H](NC(=O)OC)C2)c2cc(Nc3ccnc(-c4ccnc(OC)c4)n3)ncc21 [Example 75, Methyl ((1R,3R)-3-(6-((2-(2-methoxypyridin-4-yl)pyrimidin-4-yl)amino)-3-(methyl-d3)-2-oxo-2,3-dihydro-1H-imidazo[4,5-c]pyridin-1-yl)cyclopentyl)carbamate] | ≤ 10 | ≤ 10 | > 1000 | > 1000 |
| [2H]C([2H])([2H])n1c(=O)n([C@@H]2CC[C@@H](NC(=O)OC)C2)c2cc(Nc3cc(C(=O)N4CC5CC4CO5)c4cccc(C(F)(F)F)c4n3)ncc21 (stereo partly drawn) [Example 12, Methyl ((1R,3R)-3-(6-((4-(2-oxa-5-azabicyclo[2.2.1]heptane-5-carbonyl)-8-(trifluoromethyl)quinolin-2-yl)amino)-3-(methyl-d3)-2-oxo-2,3-dihydro-1H-imidazo[4,5-c]pyridin-1-yl)cyclopentyl)carbamate] | ≤ 10 | ≤ 10 | > 1000 | > 1000 |
| [2H]C([2H])([2H])n1c(=O)n([C@@H]2CC[C@@H](NC(=O)OC)C2)c2cc(Nc3cc(C(C)(C)O)cc(-c4ncc(Cl)s4)n3)ncc21 [Example 93, Methyl ((1R,3R)-3-(6-((6-(5-chlorothiazol-2-yl)-4-(2-hydroxypropan-2-yl)pyridin-2-yl)amino)-3-(methyl-d3)-2-oxo-2,3-dihydro-1H-imidazo[4,5-c]pyridin-1-yl)cyclopentyl)carbamate] | ≤ 10 | ≤ 10 | > 1000 | > 1000 |
| COC(=O)N[C@@H]1CC[C@@H](n2c(=O)n(C)c3cnc(Nc4ccc(F)c(-c5ccc(C(F)(F)F)nc5)n4)cc32)C1 [Example 69, Methyl ((1R,3R)-3-(6-((3-fluoro-6′-(trifluoromethyl)-[2,3′-bipyridin]-6-yl)amino)-3-methyl-2-oxo-2,3-dihydro-1H-imidazo[4,5-c]pyridin-1-yl)cyclopentyl)carbamate] | ≤ 10 | ≤ 10 | > 1000 | > 1000 |
| COC(=O)N[C@@H]1CC[C@@H](n2c(=O)n(C)c3cnc(Nc4ccc(F)c(-c5ccc(CC#N)cc5)n4)cc32)C1 [Example 71, Methyl ((1R,3R)-3-(6-((6-(4-(cyanomethyl)phenyl)-5-fluoropyridin-2-yl)amino)-3-methyl-2-oxo-2,3-dihydro-1H-imidazo[4,5-c]pyridin-1-yl)cyclopentyl)carbamate] | ≤ 10 | ≤ 10 | > 1000 | > 1000 |
| [2H]C([2H])([2H])n1c(=O)n([C@@H]2CC[C@@H](NC(=O)OC)C2)c2cc(Nc3cc(C(=O)N4CCOCC4)c(-c4cnn(C)c4)c(OC4CCC4)n3)ncc21 [Example 102, Methyl ((1R,3R)-3-(6-((6-cyclobutoxy-5-(1-methyl-1H-pyrazol-4-yl)-4-(morpholine-4-carbonyl)pyridin-2-yl)amino)-3-(methyl-d3)-2-oxo-2,3-dihydro-1H-imidazo[4,5-c]pyridin-1-yl)cyclopentyl)carbamate] | ≤ 10 | ≤ 10 | > 1000 | > 1000 |
